Laboratory results from patent publication US11813268B2, “Mitofusin activators and uses thereof” (Albert Einstein College of Medicine, priority 2017, dated 2023).
Peptide text beside a SMILES is read from it.

molecular target: T1, human Mfn2 (Homo sapiens, UniProt O95140); assay: FRET-based Mfn2 biosensor (wild type) in HEK 293T cells; assay type: cell-based; parameters: concentration or dose not given beside the values; conditions: WT FRET-based Mfn2 biosensor, 2 h
T1 construct: expressed in transfected cells; host or cells: HEK 293T
T1 sequence (O95140 1-757): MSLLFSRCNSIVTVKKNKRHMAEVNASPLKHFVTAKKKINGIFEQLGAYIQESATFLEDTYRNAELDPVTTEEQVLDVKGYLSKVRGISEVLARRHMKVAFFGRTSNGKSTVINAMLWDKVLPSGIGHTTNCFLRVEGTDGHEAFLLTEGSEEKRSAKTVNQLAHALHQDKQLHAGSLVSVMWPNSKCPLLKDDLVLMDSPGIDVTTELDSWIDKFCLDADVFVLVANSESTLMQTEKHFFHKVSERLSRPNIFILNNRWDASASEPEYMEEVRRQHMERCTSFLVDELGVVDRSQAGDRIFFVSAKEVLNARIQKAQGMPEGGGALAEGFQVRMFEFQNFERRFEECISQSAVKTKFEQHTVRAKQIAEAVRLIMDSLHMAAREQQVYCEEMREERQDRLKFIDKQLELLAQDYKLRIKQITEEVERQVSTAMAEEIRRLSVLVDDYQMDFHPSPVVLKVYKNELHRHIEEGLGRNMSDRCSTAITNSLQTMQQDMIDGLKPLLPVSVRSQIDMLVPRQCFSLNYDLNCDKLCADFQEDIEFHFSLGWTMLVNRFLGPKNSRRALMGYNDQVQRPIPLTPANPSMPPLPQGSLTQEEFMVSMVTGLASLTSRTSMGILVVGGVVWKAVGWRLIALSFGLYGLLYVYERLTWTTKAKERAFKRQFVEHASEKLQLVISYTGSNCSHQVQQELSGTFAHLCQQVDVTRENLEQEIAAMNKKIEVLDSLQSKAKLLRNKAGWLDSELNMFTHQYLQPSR
Protocol: To generate FRET-based Mfn2 biosensor construct, pcDNA3.1-Flag-Mfn2 (5′Flag epitope cassette onto human Mfn2) was used as backbone, and mCerulean (cyan fluorescent protein; CFP) was fused onto 5′ of Mfn2 and mVenus (yellow fluorescent protein; YFP) onto 3′ of ORF of Mfn2 (20-22). […] Then, the mVenus fragment was fused into pcDNA3.1-Cerulean1-Mfn2 to generate pcDNA3.1-Cerulean1-Mfn2-mVenus with mega-mutagenesis PCR using mVenus fragment as mega primer. PCR conditions: lx 95° C. 10 min; 15×(95° C. 30 sec, […], 68° C. 18 min); 1×72° C. 10 min. The construct was confirmed by sequencing.
Cells were transfected with the total amount of 2.5 μg of DNA per well for the indicated Mfn2 FRET constructs using Lipofectamine® 3000 Reagent (Invitrogen) according to the manufacturer's protocol. The following day, transfected cells were transferred to a pre-coated with poly L-lysine 96-well black plate (2×10^4 cells/well). […] GTPγS (Sigma Aldrich) was used to inhibit GTPase activity of Mfn2. Subsequently, cells were treated for 2 h with MASMs or vehicle (0.1% DMSO). Dilutions of MASMs were performed using a TECAN D300e Digital Dispenser from 10 mM stock solutions. […] Acceptor/Donor ratio referred to the text and figures correspond to the ratio of fluorescence intensities (relative fluorescence units: RFU) detected by the acceptor filter/donor filter. Non-transfected cells were used to subtract background fluorescence from each of the aforementioned filters that were used in the study.
To evaluate the capacity of the selected hits to propel the pro-tethering conformation of Mfn2, a screening assay was developed based on a Forster resonance energy transfer (FRET) biosensor of Mfn2. […] Loss of intra-molecular HR1-HR2 interactions, occurring in the pro-tethering conformation of Mfn2, increase the distance between mCerulean and mVenus and lead to a decrease in the resonance energy that is transferred.

Going from `Cc1cc(NC(=O)C(C)SCC(=O)Nc2ccc(NC(C)c3ccccc3)cc2)no1` (centres unmarked) [MASM1] to `CCC(C)NC(=O)c1ccccc1NC(=O)C(C)Sc1ccc(C)cc1` (centres unmarked) [MASM14], the “% of FRET reduction” value falls from −5.3% to −10%.

Going from `Cc1ccc(C(=O)C(C)Sc2nnc3c(=O)n(-c4ccc(Br)cc4)ccn23)cc1C` (centres unmarked) [MASM2] to `Cc1ccc(-c2nnc(SC(C)C(=O)Nc3sc4c(c3C(N)=O)CCC4)n2-c2ccccc2)o1` (centres unmarked) [MASM23], the “% of FRET reduction” value rises from −0.5% to 13.9%.

Compared with `Cc1ccc(CSCCNC(=O)C2CCN(c3ccc4nnc(C(F)(F)F)n4n3)CC2)cc1` [MASM3], `CC(=O)NC12CC3CC(C1)CC(C(=O)NCCSCc1ccc(C)cc1)(C3)C2` [MASM13] is higher in “% of FRET reduction” value: −14.1% for the first, −4.6% for the second.

Compared with `CC(/N=N/C(=N)SC1CC(=O)N(c2cccc(C(=O)O)c2)C1=O)c1ccccc1` (centres unmarked) [MASM4], `CC(Sc1nnc(-c2ccccc2)n1-c1ccccc1)C(=O)Nc1sc2c(c1C(N)=O)CCC2` (centres unmarked) [MASM20] is higher in “% of FRET reduction” value: −8.6% for the first, 10.1% for the second.

Compared with `CC(c1cccc([N+](=O)[O-])c1)N(C)CC(=O)NCCSCc1ccccc1C#N` (centres unmarked) [MASM5], `O=C(NCCSCc1ccccc1)C1CCCCO1` (centres unmarked) [MASM16] is lower in “% of FRET reduction” value: 0% for the first, −11.2% for the second.

Going from `CCC(SC1Cc2cc(OC)c(OC)cc2-c2nc(CCn3nc(C)cc3C)nn21)C(=O)Nc1ccc(F)cc1` (centres unmarked) [MASM6] to `Cc1ccc(NC(=O)CC2SC(CC(c3ccc(C(C)C)cc3)c3c(O)[nH]c(=O)[nH]c3=O)=NC2=O)c(C)c1` (centres unmarked) [MASM17], the “% of FRET reduction” value falls from −0.7% to −5.9%.

Going from `CC(Sc1nc(C2CC2)nc2c1c(=O)[nH]c(=O)n2C1CC1)C(=O)NCC1CCCCC1` (centres unmarked) [MASM8] to `CC(Sc1nnc(-c2ccco2)n1C1CCCCC1)C(=O)Nc1sc2c(c1C(N)=O)CCC2` (centres unmarked) [MASM39], the “% of FRET reduction” value rises from 1.2% to 9.9%.

First: COc1ccc2c(c1)C1(SCCN1C(=O)c1ccccc1C)C(=O)N2Cc1cccc(C(F)(F)F)c1 (centres unmarked) [MASM9]
Second: O=C(CSCc1ccc(F)cc1)N1CCc2c([nH]c3ccccc23)C1c1ccc(Cl)cc1 (centres unmarked) [MASM11]
The “% of FRET reduction” value of the first is lower: 1.1% for the first, 1.97% for the second.

First: c1ccc(CSCCc2nc(C3CCOC3)no2)cc1 (centres unmarked) [MASM12]
Second: NC(=O)c1c(NC(=O)CSc2nnc(C3CC3)n2Cc2ccccc2)sc2c1CCC2 [MASM43]
The “% of FRET reduction” value of the first is lower: −4.5% for the first, 14.8% for the second.

Compared with `S=C(NCCSCc1ccco1)NC1CC2CCC1C2` (centres unmarked) [MASM15], `CC(Sc1nnc(Cc2cccs2)n1C1CC1)C(=O)Nc1sc2c(c1C(N)=O)CCC2` (centres unmarked) [MASM31] is higher in “% of FRET reduction” value: −3.6% for the first, 30.7% for the second.

Going from `COc1ccc(SC(C)C(=O)Nc2cc[nH]n2)cc1` (centres unmarked) [MASM18] to `CC(Sc1nnc(C2CC2)n1-c1ccccc1)C(=O)NC(N)=O` (centres unmarked) [MASM19], the “% of FRET reduction” value rises from −5.8% to 2.7%.

Compared with `NC(=O)c1c(NC(=O)CSc2nnc(C3CC3)n2-c2ccccc2)sc2c1CCC2` [MASM21], `CC1CCc2c(sc(NC(=O)CSc3nnc(C4CC4)n3-c3ccccc3)c2C(N)=O)C1` (centres unmarked) [MASM24] is lower in “% of FRET reduction” value: 27.1% for the first, 18.9% for the second.

Compared with `CC(Sc1nnc(-c2ccco2)n1-c1ccccc1)C(=O)Nc1sc2c(c1C(N)=O)CCC2` (centres unmarked) [MASM22], `CC(Sc1nnc(-c2cccs2)n1-c1ccccc1)C(=O)Nc1sc2c(c1C(N)=O)CCC2` (centres unmarked) [MASM36] is lower in “% of FRET reduction” value: 31.7% for the first, 11.1% for the second.

Compared with `CC(Sc1nnc(C2CC2)n1Cc1ccccc1)C(=O)Nc1sc2c(c1C(N)=O)CCC2` (centres unmarked) [MASM25], `CCn1c(Cc2ccccc2)nnc1SC(C)C(=O)Nc1sc2c(c1C(N)=O)CCC2` (centres unmarked) [MASM38] is lower in “% of FRET reduction” value: 32.2% for the first, 9.9% for the second.

`Cc1nnc(SCC(=O)Nc2sc3c(c2C(N)=O)CCC3)n1-c1ccccc1` [MASM26] and `NC(=O)c1c(NC(=O)CSc2nc(C3CC3)n(-c3ccccc3)n2)sc2c1CCC2` [MASM32] are the same in “% of FRET reduction” value: 37.0% for the first, 37.0% for the second.

Going from `Cc1ccccc1-n1c(SCC(=O)Nc2sc3c(c2C(N)=O)CCC3)nnc1-c1ccncc1` [MASM27] to `CC(c1nnc(SCC(=O)Nc2sc3c(c2C(N)=O)CCC3)n1-c1ccc(F)cc1)N(C)C` (centres unmarked) [MASM33], the “% of FRET reduction” value rises from 30.0% to 31.9%.

Compared with `CC(Sc1nnc(C2CC2)n1-c1ccccc1)C(=O)Nc1sc2c(c1C#N)CCCCC2` (centres unmarked) [MASM28], `CC(Sc1nncn1-c1ccccc1)C(=O)Nc1sc2c(c1C(N)=O)CCC2` (centres unmarked) [MASM29] is higher in “% of FRET reduction” value: 8.0% for the first, 16.5% for the second.

Going from `C=CCn1c(SCC(=O)Nc2sc3c(c2C(N)=O)CCC3)nnc1C1CCCCC1` [MASM30] to `Cn1c(SCC(=O)Nc2sc3c(c2C(N)=O)CCCC3)nnc1C1CC1` [MASM44], the “% of FRET reduction” value rises from 17.7% to 23.3%.

Going from `CC(Sc1nnc2c(Cl)cc(C(F)(F)F)cn12)C(=O)Nc1sc2c(c1C(N)=O)CCC2` (centres unmarked) [MASM34] to `CC(Sc1nnc(Cc2ccccc2)n1C)C(=O)Nc1sc2c(c1C(N)=O)CCC2` (centres unmarked) [MASM35], the “% of FRET reduction” value rises from 19.4% to 25.9%.

First: CC(Sc1nccn1Cc1ccccc1)C(=O)Nc1sc2c(c1C(N)=O)CCC2 (centres unmarked) [MASM37]
Second: CC(Sc1nccn1-c1cccc(F)c1)C(=O)Nc1sc2c(c1C(N)=O)CCC2 (centres unmarked) [MASM41]
The “% of FRET reduction” value of the first is higher: 21.0% for the first, 10.2% for the second.

First: CC(Sc1nnnn1-c1ccc(O)cc1)C(=O)Nc1sc2c(c1C(N)=O)CCC2 (centres unmarked) [MASM40]
Second: CC(Sc1nnnn1C1CC1)C(=O)Nc1sc2c(c1C(N)=O)CCC2 (centres unmarked) [MASM45]
The “% of FRET reduction” value of the first is lower: 22.6% for the first, 26.4% for the second.

With `CC(C)Cn1c(SC(C)C(=O)Nc2sc3c(c2C(N)=O)CCC3)nnc1N1CCOCC1` (centres unmarked) [MASM42] the “% of FRET reduction” value was −1.4%.

tested on: WT MEFs; assay: cells; conditions: read-out: EC50 for inducing fusion (Mito AR); WT MEFs, mitochondrial aspect ratio
Excerpt: Next, it was visually examined if MASM7 could induce mitochondrial fusion in MEFs, using mitochondrial aspect ratio (mitochondrial length/width, reflecting fusion) as a readout. […] (FIG. 5).

`CC[C@H](C)[C@H](NC(=O)CNC(=O)[C@H](CCCNC(=N)N)NC(=O)[C@@H](NC(=O)[C@H](CCC(=O)O)NC(=O)[C@H](C)NC(=O)[C@@H](NC(=O)[C@@H](N)CCC(N)=O)[C@@H](C)CC)C(C)C)C(=O)N[C@@H](CCSC)C(=O)N[C@@H](CC(=O)O)C(=O)N[C@@H](CO)C(=O)N[C@@H](CC(C)C)C(=O)N[C@@H](Cc1c[nH]cn1)C(=O)N[C@@H](CCSC)C(=O)N[C@@H](C)C(=O)N[C@@H](C)C(=O)N[C@@H](CCCNC(=N)N)C(=O)NCC(=O)NCC(=O)N[C@@H](Cc1ccc(O)cc1)C(=O)NCC(=O)N[C@@H](CCCNC(=N)N)C(=O)N[C@@H](CCCCN)C(=O)N[C@@H](CCCCN)C(=O)N[C@@H](CCCNC(=N)N)C(=O)N[C@@H](CCCNC(=N)N)C(=O)N[C@@H](CCC(N)=O)C(=O)N[C@@H](CCCNC(=N)N)C(=O)N[C@@H](CCCNC(=N)N)C(=O)N[C@@H](CCCNC(=N)N)C(=O)O` [367-384 Gly, reference compound] (H-QIAEVRGIMDSLHMAARGGYGRKKRRQRRR-OH) showed an EC50 of 340 nM.
